# From US20230183388A1, “EXOPOLY[…] LACTIC ACID BACTERIUM AND USE THEREOF” (Asahi Kohsan Corporation, priority 2017, published 2023)
# Target: T1, hyaluronidase (Bos taurus, UniProt Q2YDK3)
# T1 sequence (Q2YDK3 36-553): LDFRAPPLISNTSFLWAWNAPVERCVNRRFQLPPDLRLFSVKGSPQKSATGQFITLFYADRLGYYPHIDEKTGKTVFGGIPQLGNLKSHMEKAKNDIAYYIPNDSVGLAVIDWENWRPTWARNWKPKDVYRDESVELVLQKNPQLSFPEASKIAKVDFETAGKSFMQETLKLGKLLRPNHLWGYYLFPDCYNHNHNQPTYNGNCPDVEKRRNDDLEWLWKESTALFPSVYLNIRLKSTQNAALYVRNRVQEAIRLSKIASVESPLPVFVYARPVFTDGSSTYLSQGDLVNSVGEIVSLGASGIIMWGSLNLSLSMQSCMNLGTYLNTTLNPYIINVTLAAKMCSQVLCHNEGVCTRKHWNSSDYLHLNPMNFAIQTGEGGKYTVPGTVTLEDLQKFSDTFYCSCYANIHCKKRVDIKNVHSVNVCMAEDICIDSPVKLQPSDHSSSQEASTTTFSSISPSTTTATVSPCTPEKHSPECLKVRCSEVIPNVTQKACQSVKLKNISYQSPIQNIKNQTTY
# Test: Hyaluronidase activity inhibition of exopolysaccharides
# Assay type: biochemical
# Settings: hyaluronidase enzyme solution (MP Biomedicals), activated with Compound 48/80 and CaCl2, sodium hyaluronate substrate, pH 4.0, 37° C.
# Experimental: 5 μL of a hyaluronidase enzyme solution (MP Biomedicals, 4 mg/mL, 100 mM sodium acetate buffer (pH 4.0)) was added to 10 μL of an aqueous solution containing polysaccharides at an optional concentration, which was prepared from the polysaccharide sample containing the neutral polysaccharide fractions and the acidic polysaccharide fractions, the neutral polysaccharide fractions, and the acidic polysaccharide fractions, which were exopolysaccharides produced by the strain IJH-SONE68 and obtained in Example 4. The resultant mixture was incubated at 37° C. for 20 minutes. Thereafter, to the mixture, 10 μL of an enzyme-activating solution (0.5 mg/ml Compound 48/80 (manufactured by MP Biomedicals)), 3.75 mg CaCl2·2H2O, and 100 mM sodium acetate buffer (pH 4.0)) were added, and incubated again at 37° C. for 20 minutes. Subsequently, to the resultant mixture, 25 μL of a sodium hyaluronate solution (Wako Pure Chemical Industries, 0.8 mg/mL, 100 mM sodium acetate buffer (pH 4.0)) was added, and further reacted at 37° C. for 40 minutes. After the reaction, the reaction was terminated by adding 10 μL of 0.4 M NaOH aqueous solution. […] 40 μL of the reaction solution was mixed with 200 μL of p-DMAB solution (described below), the mixture was reacted at 37° C. for 20 minutes, and the absorbance at 585 nm was then measured. […]
compound,measurement,value
CC1(C)[C@@H](O[C@H]2O[C@H](C(=O)[O-])[C@@H](O)[C@H](O)[C@H]2O[C@@H]2O[C@H](C(=O)[O-])[C@@H](O)[C@H](O)[C@H]2O)CC[C@]2(C)[C@H]3C(=O)C=C4[C@@H]5C[C@@](C)(C(=O)O)CC[C@]5(C)CC[C@@]4(C)[C@]3(C)CC[C@@H]12.[K+].[K+] [Dipotassium glycyrrhizinate],IC50 (hyaluronidase activity inhibition),530 µg/mL
